Test results reported in ChEMBL document CHEMBL1201862, “PubChem BioAssay data set” (2004).
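Tested at 5 concentrations; 48 h exposure; 96-well plates; endpoints linearly interpolated, else capped at highest concentration. Here, GI50 denotes the concentration required for 50% inhibition of growth.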 Calls of active or inactive are those of the source. No stated cut-off is given here; in the data, active = GI50 up to about 1.1 µM and inactive = higher.

Key:
Test in all cases: NCI-60 cell line screen, 48 h
HCC 2998 = system: HCC 2998
A549 = system: A549
T47D = system: T47D
ACHN = system: ACHN
OVCAR-4 = system: OVCAR-4
SK-MEL-28 = system: SK-MEL-28
UACC-257 = system: UACC-257
Malme-3M = system: Malme-3M
IGROV-1 = system: IGROV-1
SR = system: SR
SNB-19 = system: SNB-19
M14 = system: M14
KM12 = system: KM12
NCI-H226 = system: NCI-H226
MDA-MB-435 = system: MDA-MB-435
SK-MEL-5 = system: SK-MEL-5
SW-620 = system: SW-620
Hs-578T = system: Hs-578T
SF-295 = system: SF-295
UO-31 = system: UO-31

| Compound | GI50 (HCC 2998) | GI50 (A549) | GI50 (T47D) | GI50 (ACHN) | GI50 (OVCAR-4) | GI50 (SK-MEL-28) | GI50 (UACC-257) | GI50 (Malme-3M) | GI50 (IGROV-1) | GI50 (SR) | GI50 (SNB-19) | GI50 (M14) | GI50 (KM12) | GI50 (NCI-H226) | GI50 (MDA-MB-435) | GI50 (SK-MEL-5) | GI50 (SW-620) | GI50 (Hs-578T) | GI50 (SF-295) | GI50 (UO-31) |
| --- | --- | --- | --- | --- | --- | --- | --- | --- | --- | --- | --- | --- | --- | --- | --- | --- | --- | --- | --- | --- |
| c1cc2cc(Cc3ccc4[nH]ccc4c3)ccc2[nH]1 | 15.3 µM (inactive) | 16.2 µM (inactive) | 15.6 µM (inactive) | 25.2 µM (inactive) | 7.74 µM (inactive) | 26.4 µM (inactive) | 21.9 µM (inactive) | 15.2 µM (inactive) | 15.9 µM (inactive) | 5.78 µM (inactive) | 21.5 µM (inactive) | 17.1 µM (inactive) | 14.2 µM (inactive) | 15.9 µM (inactive) | 16.4 µM (inactive) | 16.1 µM (inactive) | 23.1 µM (inactive) | 19.9 µM (inactive) | 31 µM (inactive) | 16.2 µM (inactive) |
| COc1ccc(C[C@H]2NC[C@H](OC(C)=O)[C@H]2OC(C)=O)cc1 | 0.115 µM (active) | 0.151 µM (active) | 0.112 µM (active) | 0.106 µM (active) | 0.104 µM (active) | 0.143 µM (active) | 0.21 µM (active) | 0.158 µM (active) | 0.15 µM (active) | 0.177 µM (active) | 0.0935 µM (active) | 0.0951 µM (active) | 0.192 µM (active) | 0.172 µM (active) | 0.164 µM (active) | 0.0665 µM (active) | 0.186 µM (active) | 0.135 µM (active) | 0.183 µM (active) | 0.0583 µM (active) |
| O=C1OC(=O)C(=C\c2ccc3c(c2)OCO3)/C1=C/c1ccc2c(c1)OCO2 | > 100 µM (inactive) | 37.9 µM (inactive) | > 100 µM (inactive) | > 100 µM (inactive) | > 100 µM (inactive) | > 100 µM (inactive) | > 100 µM (inactive) | > 100 µM (inactive) | > 100 µM (inactive) | > 52.8 µM (inactive) | > 100 µM (inactive) | > 100 µM (inactive) | > 100 µM (inactive) | > 93.5 µM (inactive) | > 100 µM (inactive) | > 100 µM (inactive) | > 100 µM (inactive) | > 88.5 µM (inactive) | > 100 µM (inactive) | > 100 µM (inactive) |
